This is an account of results in BindingDB's records for PubMed 32120325 (China Pharmaceutical University, 2020).

The target in experiment [1] is T1, Signal transducer and activator of transcription 3 (Homo sapiens, UniProt P40763). Briefly: Inhibition of IL-6 stimulated STAT3 phosphorylation in human PBMC preincubated with compound for 10 to 15 mins followed by IL-6 stimulation and measured after 15 mins by ELISA analysis.
Experiment [2] concerns the target T1, Signal transducer and activator of transcription 3. Briefly: Inhibition of IL-23 stimulated STAT3 […] in human naive T cell preincubated with compound for 10 to 15 mins followed by IL-23 stimulation and measured after 15 mins by ELISA analysis.

T1 sequence (P40763 whole entry): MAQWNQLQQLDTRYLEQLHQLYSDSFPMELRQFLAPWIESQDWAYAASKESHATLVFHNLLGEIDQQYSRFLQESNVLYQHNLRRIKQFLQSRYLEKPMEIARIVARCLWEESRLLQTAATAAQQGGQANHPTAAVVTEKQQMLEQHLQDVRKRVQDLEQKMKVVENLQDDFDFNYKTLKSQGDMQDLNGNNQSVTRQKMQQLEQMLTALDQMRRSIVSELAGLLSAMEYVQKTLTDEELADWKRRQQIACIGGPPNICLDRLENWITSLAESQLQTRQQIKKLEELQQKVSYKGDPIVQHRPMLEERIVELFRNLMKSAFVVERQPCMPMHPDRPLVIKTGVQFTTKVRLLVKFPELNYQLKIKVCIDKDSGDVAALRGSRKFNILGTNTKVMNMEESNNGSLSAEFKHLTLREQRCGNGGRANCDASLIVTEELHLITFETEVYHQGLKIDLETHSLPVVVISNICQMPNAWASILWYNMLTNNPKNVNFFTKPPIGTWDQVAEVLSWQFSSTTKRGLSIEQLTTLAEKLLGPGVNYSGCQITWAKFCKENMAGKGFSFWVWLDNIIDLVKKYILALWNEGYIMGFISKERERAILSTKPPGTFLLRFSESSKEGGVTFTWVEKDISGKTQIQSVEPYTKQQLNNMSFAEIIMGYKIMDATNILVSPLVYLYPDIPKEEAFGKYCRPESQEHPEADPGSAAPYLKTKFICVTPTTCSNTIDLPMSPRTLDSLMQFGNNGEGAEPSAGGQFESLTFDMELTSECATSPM

For `CCS(=O)(=O)N1CC(CC#N)(n2cc(-c3ncnc4[nH]ccc34)cn2)C1` [LY-3009104], the IC50 in experiment [1] was 44 nM; in experiment [2] it was 20 nM.
